From patent US7872153B2, “Salt of aliskiren with sulfuric acid” (Novartis AG, priority 2006, dated 2011)

Tests used:
[1] = hygroscopicity of the drug substance (statement); type: physicochemical; settings: background statement
[2] = dynamic vapour sorption (DVS): water absorption or loss as a function of relative humidity; type: physicochemical; settings: for change in mass in % (sorption) / change in mass in % (desorption): 25° C., 9.5 mg sample, 4 hours; for change in mass in % (sorption): cycle 0-95%; for change in mass in % (desorption): cycle 40-0
Text: A clear characterisation of this property is achieved by means of isothermal measurements over predetermined time intervals and predetermined relative humidity using dynamic vapour sorption (DVS from the company Surface Measurement Systems LTD, Marlow, Buckinghamshire, UK). […] The following cycles of changes in relative humidity are shown: 40-0; 0-95% relative humidity: The measurement error of this sorption method based on thermogravimetry is about 0.1%.

hygroscopicity [1] | water absorption or loss ([2]; above 40% relative humidity) | change in mass in % (sorption) ([2]; relative humidity 0%) [%] | change in mass in % (desorption) ([2]; relative humidity 0%) [%] | change in mass in % (sorption) ([2]; relative humidity 10%) [%] | change in mass in % (desorption) ([2]; relative humidity 10%) [%] | change in mass in % (sorption) ([2]; relative humidity 20%) [%] | change in mass in % (desorption) ([2]; relative humidity 20%) [%] | change in mass in % (sorption) ([2]; relative humidity 30%) [%] | change in mass in % (desorption) ([2]; relative humidity 30%) [%] | change in mass in % (sorption) ([2]; relative humidity 40%) [%] | change in mass in % (desorption) ([2]; relative humidity 40%) [%] | change in mass in % (sorption) ([2]; relative humidity 50%) [%] | change in mass in % (sorption) ([2]; relative humidity 60%) [%] | change in mass in % (sorption) ([2]; relative humidity 70%) [%] | change in mass in % (sorption) ([2]; relative humidity 80%) [%] | change in mass in % (sorption) ([2]; relative humidity 90%) [%] | change in mass in % (sorption) ([2]; relative humidity 95%) [%] | Compound | water uptake compared with the hemifumarate ([2]; below 40% relative humidity)
highly hygroscopic |  |  |  |  |  |  |  |  |  |  |  |  |  |  |  |  |  | COCCCOc1cc(C[C@@H](C[C@H](N)[C@@H](O)C[C@H](C(=O)NCC(C)(C)C(N)=O)C(C)C)C(C)C)ccc1OC [aliskiren, 2(S),4(S),5(S),7(S)—N-(3-amino-2,2-dimethyl-3-oxopropyl)-2,7-di(1-methylethyl)-4-hydroxy-5-amino-8-[4-methoxy-3-(3-methoxy-propoxy)phenyl]-octanamide] | 
 | significant water absorption or loss | 0.00 | 0.00 | 0.46 | 0.88 | 0.84 | 1.25 | 1.31 | 1.67 | 1.98 | 2.20 | 3.39 | 7.07 | 8.88 | 13.43 | 25.83 | 40.62 | COCCCOc1cc(C[C@@H](C[C@H](N)[C@@H](O)C[C@H](C(=O)NCC(C)(C)C(N)=O)C(C)C)C(C)C)ccc1OC.O=S(=O)(O)O [hydrogen sulfate salt of aliskiren] | does not take up as much water as the hemifumarate
